# How the values were obtained:
# Conditions in all cases: exposure time: 72 h
# KNS-42 [1] = assay: Bliss synergy score (Combenefit); higher = more synergy; extreme values may be limits of the assay
# In short: (§1)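 Glioma cell lines in 96-well plates received pairs of drugs 24 h after plating, with an untreated control repeated sixfold. Each drug's top dose was set at its own IC50. The doses ran in 6 × 6 matrices of twofold steps, and readings taken three days later were made at least in triplicate. Viability by CellTiter-Glo, as percent of DMSO controls, was normalised and scored for Loewe, Bliss and highest single agent synergy in Combenefit.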
# U118 [2] = assay: as above
# In short: as §1
# SF268 [3] = assay: as above
# In short: as §1
# SNB75 [4] = assay: as above
# In short: as §1
# SF539 [5] = assay: as above
# In short: as §1
# T98G [6] = assay: as above
# In short: as §1
# U251 [7] = assay: as above
# In short: as §1
# AM-38 [8] = assay: as above
# In short: as §1
# U87 [9] = assay: as above
# In short: as §1
# KNS-42 [10] = assay: Loewe synergy score (Combenefit); higher = more synergy; extreme values may be limits of the assay
# In short: as §1
# U118 [11] = assay: as above
# In short: as §1
# SF268 [12] = assay: as above
# In short: as §1
# SNB75 [13] = assay: as above
# In short: as §1
# SF539 [14] = assay: as above
# In short: as §1
# T98G [15] = assay: as above
# In short: as §1
# U251 [16] = assay: as above
# In short: as §1
# AM-38 [17] = assay: as above
# In short: as §1
# U87 [18] = assay: as above
# In short: as §1
# KNS-42 [19] = assay: HSA synergy score (Combenefit); higher = more synergy
# In short: as §1
# U118 [20] = assay: as above
# In short: as §1
# SF268 [21] = assay: as above
# In short: as §1
# SNB75 [22] = assay: as above
# In short: as §1
# SF539 [23] = assay: as above
# In short: as §1
# T98G [24] = assay: as above
# In short: as §1
# U251 [25] = assay: as above
# In short: as §1
# AM-38 [26] = assay: as above
# In short: as §1
# U87 [27] = assay: as above
# In short: as §1
# T98 = assay: Chou-Talalay combination index (dimensionless); higher = less synergy (more antagonism)
# In short: (§2)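 For combination testing, glioma cell lines were seeded at optimal density in 96-well plates, or in low-adhesion plates for primary cultures. Treatment began after 24 h with two drugs crossed in a 6 × 6 matrix of twofold dilutions, alongside an untreated control repeated sixfold, and CellTiter-Glo was read three days later at least in triplicate. Dilutions of each drug started from its single-drug IC50. Viability relative to DMSO controls, in percent, fed a median-effect calculation of the Chou–Talalay combination index.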
# U118 [28] = assay: as above
# In short: as §2
# SF268 [29] = assay: as above
# In short: as §2
# SNB75 [30] = assay: as above
# In short: as §2
# SF539 [31] = assay: as above
# In short: as §2
# KNS42 = assay: as above
# In short: as §2
# U251 [32] = assay: as above
# In short: as §2
# U87 [33] = assay: as above
# In short: as §2
# AM38 = assay: as above
# In short: as §2
smiles,measurement,setting,value
CCC(=O)N1CCN(c2ccc(-n3c(=O)ccc4cnc5ccc(-c6cnc7ccccc7c6)cc5c43)cc2C(F)(F)F)CC1 [Torin1] + CCCCCCCCCCCC1=C(O)C(=O)C=C(O)C1=O [Embelin],Bliss synergy score,KNS-42 [1],0.0808
same,Bliss synergy score,U118 [2],1.08
same,Bliss synergy score,SF268 [3],0.248
same,Bliss synergy score,SNB75 [4],1.77
same,Bliss synergy score,SF539 [5],0.761
same,Bliss synergy score,T98G [6],0
same,Bliss synergy score,U251 [7],2.83
same,Bliss synergy score,AM-38 [8],0.037
same,Bliss synergy score,U87 [9],2.62
same,Loewe synergy score,KNS-42 [10],3.32
same,Loewe synergy score,U118 [11],1.87
same,Loewe synergy score,SF268 [12],1.92
same,Loewe synergy score,SNB75 [13],1.4
same,Loewe synergy score,SF539 [14],1.98
same,Loewe synergy score,T98G [15],0
same,Loewe synergy score,U251 [16],5.87
same,Loewe synergy score,AM-38 [17],1.83
same,Loewe synergy score,U87 [18],0.761
same,HSA synergy score,KNS-42 [19],5.07
same,HSA synergy score,U118 [20],2.41
same,HSA synergy score,SF268 [21],2.48
same,HSA synergy score,SNB75 [22],7.31
same,HSA synergy score,SF539 [23],2.69
same,HSA synergy score,T98G [24],0
same,HSA synergy score,U251 [25],6.4
same,HSA synergy score,AM-38 [26],2.04
same,HSA synergy score,U87 [27],3.43
same,Chou-Talalay combination index,T98,0.173
same,Chou-Talalay combination index,U118 [28],0.917
same,Chou-Talalay combination index,SF268 [29],0.864
same,Chou-Talalay combination index,SNB75 [30],0.841
same,Chou-Talalay combination index,SF539 [31],0.855
same,Chou-Talalay combination index,KNS42,0.865
same,Chou-Talalay combination index,U251 [32],0.874
same,Chou-Talalay combination index,U87 [33],0.673
same,Chou-Talalay combination index,AM38,0.856

# Source: the supplement of paper PMC7287046
